Patent publication US10913750B2, “Tubulin-binding compounds, compositions and uses related thereto” (The Regents of the University of California, priority 2015, dated 2021)

What was measured:
melanoma (M233) = experiment: CellTiter-Glo cell viability, M233; type: cell-based
Experimental: To determine if MI-181 had broad anti-cancer activity, we treated a diverse panel of cancer cell lines including cervical adenocarcinoma (HeLa), breast adenocarcinoma (MCF7), melanoma (M233), osteosarcoma (U205), acute lymphoblastic leukemia (CCRF-CEM), non-small cell lung carcinoma (NCI-H460), and breast adenocarcinoma (MCF7) with MI-181 and determined its cell viability IC50 (FIGS. 13A and 13B). […] Therefore, the efficacy of MI-181 was analyzed in a panel of melanoma cell lines with defined genetic backgrounds including BRAF^V600E and NRAS^Q61L mutations and varied sensitivities to Vemurafenib (BRAF inhibitor) and Trametinib (MEK inhibitor), which are currently used to treat BRAF^V600E melanomas^43,44 (FIG. 10c). […] As a general trend BRAF^V600E cell lines were slightly more sensitive than NRAS^Q61L cell lines and MI-181 was effective in Vemurafenib and Trametinib resistant cell lines (FIG. 10c and Table 3). Finally, we tested the ability of MI-181 to inhibit melanoma colony formation using the M233 and M308 cell lines (both resistant to Vemurafenib). Indeed, MI-181 was a potent inhibitor of colony formation (percentage colony formation for 10 nM MI-181=0.2±0.1 and 0.8±0.7; for 10 nM colchicine=0.1±0.06 and 1.5±0.5; and for 10 nM Vemurafenib=94±7 and 102±5) (FIG. 10d). Thus, MI-181 is a potent inhibitor of melanoma cell lines. […]

M233 = experiment: Melanoma colony formation, M233; type: cell-based; settings: 10 nM, M233 (first value of pair)
Experimental: To determine if MI-181 had broad anti-cancer activity, we treated a diverse panel of cancer cell lines including cervical adenocarcinoma (HeLa), breast adenocarcinoma (MCF7), melanoma (M233), osteosarcoma (U205), acute lymphoblastic leukemia (CCRF-CEM), non-small cell lung carcinoma (NCI-H460), and breast adenocarcinoma (MCF7) with MI-181 and determined its cell viability IC50 (FIGS. 13A and 13B). […] Therefore, the efficacy of MI-181 was analyzed in a panel of melanoma cell lines with defined genetic backgrounds including BRAF^V600E and NRAS^Q61L mutations and varied sensitivities to Vemurafenib (BRAF inhibitor) and Trametinib (MEK inhibitor), which are currently used to treat BRAF^V600E melanomas^43,44 (FIG. 10c). […] As a general trend BRAF^V600E cell lines were slightly more sensitive than NRAS^Q61L cell lines and MI-181 was effective in Vemurafenib and Trametinib resistant cell lines (FIG. 10c and Table 3). Finally, we tested the ability of MI-181 to inhibit melanoma colony formation using the M233 and M308 cell lines (both resistant to Vemurafenib). Indeed, MI-181 was a potent inhibitor of colony formation (percentage colony formation for 10 nM MI-181=0.2±0.1 and 0.8±0.7; for 10 nM colchicine=0.1±0.06 and 1.5±0.5; and for 10 nM Vemurafenib=94±7 and 102±5) (FIG. 10d). Thus, MI-181 is a potent inhibitor of melanoma cell lines.

β-tubulin = experiment: Crystal structure of T2R-TTL tubulin complex soaked with ligand; type: binding, bovine; settings: T2R-TTL crystal soaked 24 hours with 1 mM compound
Experimental: The crystal structure of tubulin bound to two ligands described here was obtained using an established system for tubulin crystal growth. […] Methods in Cell Biology 2010, 95:373-390.) Briefly, bovine αβ-tubulin, human RB3 or rat STMN4 stathmin-like domain, and chicken tubulin tyrosine ligase (TTL) reconstitute to form a stathmin-bound αβ-tubulin (T2R) T2R-TTL complex, which readily crystallizes. […]
The final resolution cutoffs described here were determined optimally from a subset of diffraction images that took into consideration the signal-to-noise ratio for reflection intensities and the random half-data set correlation coefficient, CC1/2 (Karplus P. A., Diederichs K. Linking crystallographic model and data quality. Science 2012, (New York, N.Y.) 336:1030-1033.) […]

## Cc1cc2nc(/C=C/c3cccnc3)sc2cc1C [MI-181]
Melanoma (M233)
  IC50: 24.4 nM
M233
  percentage colony formation: 0.2±0.1
β-tubulin
  binding to tubulin in crystal structure: bound to β-tubulin
